How the values of data set [1] were obtained: (§1) Aquacoat® ECD was plasticized by stirring with triethyl citrate for 24 hours prior to addition of permeation enhancing agent. The dispersion stability was checked by optical microscopy for aggregation, coagulation or flocculation. Films were cast on Teflon® and cured for 24 hours at 60° C. The cast films were assessed in terms of appearance, transparency, inhomogeneities, or cracks and mechanical properties (semi-quantitative brittleness or flexibility).

Data set [2] can be described thus: Assessment of cast mixed films (appearance, transparency, inhomogeneities, cracks, brittleness or flexibility). Type of data set: physicochemical. The following applies: films cast on Teflon, cured 24 hours at 60° C. As to the method:
as §1

The conditions of data set [3]: not told, pH 7.4.
Method: Drug free thin, polymeric films were exposed to 0.1M HCl in a horizontal shaker at 37° C. (80 rpm). At pre-determined intervals, samples were withdrawn and dried to constant weight at 60° C. (n=3).
Drug-containing films were prepared accordingly, adding theophylline to the aqueous dispersions. The drug loading was below the solubility of theophylline in the polymeric systems (clear films, monolithic solutions).
The water uptake and dry weight loss kinetics of the films were measured gravimetrically upon exposure to 0.1M HCl and phosphate buffer pH 7.4. In vitro drug release was monitored in the same media (horizontal shaker, 37° C., UV drug detection).
The apparent diffusion coefficients of water and drug within the polymeric systems, D, were determined by fitting the following solution of Fick's 2nd law of diffusion to the experimentally measured water uptake and drug release kinetics: […]
Drug-containing films were prepared accordingly, adding theophylline to the aqueous dispersions. […] The water uptake and dry weight loss kinetics of the films were measured gravimetrically upon exposure to 0.1M HCl and phosphate buffer pH 7.4. In vitro drug release was monitored in the same media (37° C., UV drug detection). […]
Where [4] appears, read: 10 to 30% w/w with respect to Aquacoat ECD solids, Aquacoat ECD plasticized with 25% w/w triethyl citrate.

Like-named read-outs stand apart in the source and are kept apart here.

Take `O=P([O-])([O-])O.[Na+].[Na+]` [Disodium Hydrogen Phosphate]: the “Compatibility with / destabilisation of Aquacoat ECD dispersion” value (from here on “Compatibility with / destabilisation”) in data set [1] (setting [4]) is “compatible”. For the same compound, the “Properties of cast mixed films with Aquacoat ECD” value (shortened to “Properties of cast mixed films”) in data set [2] is “inhomogenous films”.

For `[Cl-].[Na+]` [Sodium chloride, Sodium Chloride, reference compound], in data set [1] (setting [4]), the “Compatibility with / destabilisation” value is given as “destabilized”. In addition, in data set [2], the “Properties of cast mixed films” value was “inhomogenous films, with recrystallisation and cracking”.

Turning to `OC[C@H]1O[C@@](CO)(O[C@H]2O[C@H](CO)[C@@H](O)[C@H](O)[C@H]2O)[C@@H](O)[C@@H]1O` [Sucrose], in data set [1], the “Compatibility with / destabilisation” value was “compatible”. In addition, the “Properties of cast mixed films” value in data set [2] is listed as “good films”.

On to `OC[C@H]1O[C@@H](O[C@H]2[C@H](O)[C@@H](O)C(O)O[C@@H]2CO)[C@H](O)[C@@H](O)[C@H]1O` (stereo partly drawn) [lactose, Lactose], for which the “Compatibility with / destabilisation” value in data set [1] is recorded as “compatible”. The “Properties of cast mixed films” value in data set [2] is given as “good films”.

Turning to `OC[C@@H](O)[C@@H](O)[C@H](O)[C@H](O)CO` [mannitol, Mannitol], in data set [1], the “Compatibility with / destabilisation” value is on record as “compatible”. In data set [2], the “Properties of cast mixed films” value is reported as “good films”.

Regarding `OC[C@@H](O)[C@@H](O)[C@H](O)[C@@H](O)CO` [sorbitol, Sorbitol], the “Compatibility with / destabilisation” value in data set [1] is on record as “compatible”. Moreover, in data set [2], the “Properties of cast mixed films” value was “good films”.

For the compound “Hydroxypropylmethylcellulose [reference compound]”, in data set [1], the “Compatibility with / destabilisation” value is recorded as “destabilized”.

Turning to Iota carrageenan [Gelcarin® GP379], in data set [1], the “Compatibility with / destabilisation” value is reported as “not destabilized”.

As for Kappa carrageenan [Gelcarin® GP911], the “Compatibility with / destabilisation” value in data set [1] was “viscous stable dispersions”.

As to Lambda carrageenan [Viscarin® GP209], in data set [1], the “Compatibility with / destabilisation” value is “viscous stable dispersions” and the “Stability of the aqueous ethylcellulose coating dispersions in presence of the additive” value was “stable”.

As for “Microcrystalline cellulose-carrageenan [LustreClear® LC103]”, the “Compatibility with / destabilisation” value in data set [1] is “very viscous destabilised”.

Take Polyvinyl acetate [Kollicoat® SR 30 D]: in data set [1], the “Compatibility with / destabilisation” value was “compatible”.

For the compound “Polyvinyl alcohol-polyethylene glycol graft copolymer [Kollicoat® IR]”, in data set [1], the “Compatibility with / destabilisation” value is listed as “compatible in dispersion” and the “Stability of the aqueous ethylcellulose coating dispersions in presence of the additive” value is recorded as “did not affect”. Also, the “Effect on water permeability (diffusion coefficient of water) of Aquacoat ECD-based films” value in data set [3] is recorded as “significantly increased”.

In the case of “Sodium Carboxymethylcellulose [reference compound]”, the “Compatibility with / destabilisation” value in data set [1] was “destabilized”.

For the compound Starch, the “Compatibility with / destabilisation” value in data set [1] is listed as “compatible”.
